The values that follow come from US20250136570A1 (Tango Therapeutics, Inc., priority 2021, published 2025).

pIC50: −log10 of the molar value.

For one test, the target named is HDAC3/NCor2 (Homo sapiens (Human), UniProt O15379). In words: HDAC3 inhibition, Fluor de Lys fluorescent enzyme assay. Particulars: 3 hours pre-incubation at room temp; 1.2 nM enzyme; 16 μM Fluor de Lys substrate; duplicate. Type of test: biochemical. An outline of the steps: (§1)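 Enzyme (HDAC1 6 nM, HDAC3/NCor2 1.2 nM final) pre-incubated with compound 3 h at ~22 °C in Tris pH 8 buffer with 0.01% BSA. Reaction run 1 h with 16 μM Fluor de Lys substrate and stopped with TSA-containing developer. Fluorescence read at Ex 360/Em 460; IC50 from an occupancy equation with Hill coefficient, in duplicate.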
Sequence of HDAC3/NCor2 (O15379 whole entry): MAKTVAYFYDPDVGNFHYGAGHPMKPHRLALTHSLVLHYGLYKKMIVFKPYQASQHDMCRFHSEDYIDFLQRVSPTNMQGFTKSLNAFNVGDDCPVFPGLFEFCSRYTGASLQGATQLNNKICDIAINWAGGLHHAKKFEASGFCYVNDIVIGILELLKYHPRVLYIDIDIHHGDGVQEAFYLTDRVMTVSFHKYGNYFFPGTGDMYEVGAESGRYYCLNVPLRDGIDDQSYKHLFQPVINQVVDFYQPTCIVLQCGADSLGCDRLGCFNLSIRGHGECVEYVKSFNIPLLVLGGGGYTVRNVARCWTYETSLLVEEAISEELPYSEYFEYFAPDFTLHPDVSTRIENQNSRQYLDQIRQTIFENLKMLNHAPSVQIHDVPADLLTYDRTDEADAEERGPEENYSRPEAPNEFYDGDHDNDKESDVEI
Sequence of HDAC3/NCor2 (Q9Y618 395-489 partner): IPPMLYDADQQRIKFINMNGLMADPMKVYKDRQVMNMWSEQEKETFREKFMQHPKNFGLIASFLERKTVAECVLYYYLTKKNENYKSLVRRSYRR

Another test deals with Recombinant HDAC1 (Homo sapiens (Human), UniProt Q13547). In words: HDAC1 inhibition, Fluor de Lys fluorescent enzyme assay. It counts as biochemical. Particulars: 3 hours pre-incubation at room temp; 6 nM enzyme; 16 μM Fluor de Lys substrate; duplicate. An outline of the steps: as §1
Sequence of Recombinant HDAC1 (Q13547 whole entry): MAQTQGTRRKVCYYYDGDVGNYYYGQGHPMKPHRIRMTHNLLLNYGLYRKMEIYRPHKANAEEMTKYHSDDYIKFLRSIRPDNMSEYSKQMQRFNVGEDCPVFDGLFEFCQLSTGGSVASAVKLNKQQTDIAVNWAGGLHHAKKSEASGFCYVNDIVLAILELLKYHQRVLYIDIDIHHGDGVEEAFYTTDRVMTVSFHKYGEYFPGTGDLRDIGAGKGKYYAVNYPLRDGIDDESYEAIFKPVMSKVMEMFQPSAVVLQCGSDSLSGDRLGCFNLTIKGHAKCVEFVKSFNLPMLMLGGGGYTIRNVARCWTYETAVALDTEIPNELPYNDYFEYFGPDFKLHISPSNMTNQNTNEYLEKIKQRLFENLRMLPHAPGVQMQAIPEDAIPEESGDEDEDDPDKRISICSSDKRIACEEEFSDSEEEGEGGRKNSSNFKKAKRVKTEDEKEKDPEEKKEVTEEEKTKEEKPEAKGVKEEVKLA

The pIC50 is the IC50 on a negative log10 scale, so that one unit is a factor of ten.

In the case of `Cc1ncccc1S(=N)(=O)c1ccc(C(=O)Nc2cc(-c3ccc(F)cc3)ccc2N)cc1` (centres unmarked) [Compound 190, N-[2-amino-5-(4-fluorophenyl)phenyl]-4-[(2-methyl-3-pyridyl)sulfonimidoyl]benzamide], the pIC50 is 5.70 to 6.30 at HDAC3/NCor2 and over 7.00 at Recombinant HDAC1.
The like results for `N=[S@@](=O)(c1ccc(C(=O)Nc2cc(-c3ccc(F)s3)ccc2N)cc1)C1CC1` (single isomer, unassigned) [Compound 133] were, in that order, 5.70 to 6.30 and over 7.00.
The like results for `N=[S@@](=O)(c1ccc(C(=O)Nc2cc(-c3ccc(F)cc3)ccc2N)cc1)c1ccccn1` (single isomer, unassigned) [Compound 212] were, in that order, 5.70 to 6.30 and over 7.00.
The corresponding values for `N=S(=O)(c1ccc(C(=O)Nc2cc(-c3cccs3)ccc2N)cc1)C1CC1` (centres unmarked) [Compound 103, N-[2-amino-5-(2-thienyl)phenyl]-4-(cyclopropylsulfonimidoyl)benzamide] are 5.70 to 6.30 and over 7.00.
Take `N=S(=O)(c1ccc(C(=O)Nc2cc(-c3ccc(F)cc3)ccc2N)cc1)c1ccc(F)cn1` (centres unmarked) [Compound 247, N-[2-amino-5-(4-fluorophenyl)phenyl]-4-[(5-fluoro-2-pyridyl)sulfonimidoyl]benzamide]: the results for the negative-log IC50 (pIC50) on HDAC3/NCor2 and on Recombinant HDAC1 were 5.70 to 6.30 and over 7.00, respectively.
The like results for `Cc1ncc(S(=N)(=O)c2ccc(C(=O)Nc3cc(-c4ccc(F)cc4)ccc3N)cc2)[nH]1` (centres unmarked) [Compound 217, N-[2-amino-5-(4-fluorophenyl)phenyl]-4-[(2-methyl-1H-imidazol-5-yl)sulfonimidoyl]benzamide] were, in that order, 6.30 to 7.00 and over 7.00.
The like results for `COCCOCc1ccc(S(=N)(=O)c2ccc(C(=O)Nc3cc(-c4ccc(F)cc4)ccc3N)cc2)cn1` (centres unmarked) [Compound 246, N-[2-amino-5-(4-fluorophenyl)phenyl]-4-[[6-(2-methoxyethoxymethyl)-3-pyridyl]sulfonimidoyl]benzamide] were, in that order, 5.70 to 6.30 and over 7.00.
The corresponding values for `CS(=N)(=O)c1ccc(C(=O)Nc2cc(-c3cccnc3)ccc2N)cc1` (centres unmarked) [Compound 107, N-[2-amino-5-(3-pyridyl)phenyl]-4-(methylsulfonimidoyl)benzamide] are 5.70 to 6.30 and 6.30 to 7.00.
Turning to `CS(=N)(=O)c1ccc2oc(C(=O)Nc3cc(-c4cccs4)ccc3N)cc2c1` (centres unmarked) [Compound 143, N-[2-amino-5-(2-thienyl)phenyl]-5-(methylsulfonimidoyl)benzofuran-2-carboxamide], the pIC50 at HDAC3/NCor2 is 5.70 to 6.30; on Recombinant HDAC1, over 7.00.
The corresponding values for `Nc1ccc(-c2ccc(Cl)cc2)cc1NC(=O)c1ccc(S2(=O)=NCCC2)cc1` (centres unmarked) [Compound 203, N-[2-amino-5-(4-chlorophenyl)phenyl]-4-(1-oxo-4,5-dihydro-3H-isothiazol-1-yl)benzamide] are under 5.70 and over 7.00.
The like results for `N=[S@](=O)(c1ccc(C(=O)Nc2cc(-c3ccc(F)cc3)ccc2N)cc1)c1cncnc1` (single isomer, unassigned) [Compound 183] were, in that order, 5.70 to 6.30 and over 7.00.
In the case of `CS(=N)(=O)c1ccc(C(=O)Nc2cc(-c3ccc(F)cc3)ccc2N)cc1` (centres unmarked) [Compound 104, N-[2-amino-5-(4-fluorophenyl)phenyl]-4-(methylsulfonimidoyl)benzamide], the negative logarithm of the IC50 (pIC50) on HDAC3/NCor2 was 5.70 to 6.30; at Recombinant HDAC1, over 7.00.
The corresponding values for `N#Cc1ccc(S(=N)(=O)c2ccc(C(=O)Nc3cc(-c4ccc(F)cc4)ccc3N)cc2)cn1` (centres unmarked) [Compound 239, N-[2-amino-5-(4-fluorophenyl)phenyl]-4-[(6-cyano-3-pyridyl)sulfonimidoyl]benzamide] are 5.70 to 6.30 and over 7.00.
In the case of `Cc1csc(-c2ccc(N)c(NC(=O)c3ccc(S(C)(=N)=O)cc3)c2)c1` (centres unmarked) [Compound 135, N-[2-amino-5-(4-methyl-2-thienyl)phenyl]-4-(methylsulfonimidoyl)benzamide], the negative logarithm of the IC50 (pIC50) on HDAC3/NCor2 was under 5.70; on Recombinant HDAC1, over 7.00.
The like results for `CS(=N)(=O)c1ccc2oc(C(=O)Nc3cc(-c4ccc(F)cc4)ccc3N)cc2c1` (centres unmarked) [Compound 171, N-(4-amino-4′-fluoro-[1,1′-biphenyl]-3-yl)-5-(S-methylsulfonimidoyl)benzofuran-2-carboxamide] were, in that order, 6.30 to 7.00 and over 7.00.
For the compound `CS(=N)(=O)Cc1ccc(C(=O)Nc2cc(-c3cccs3)ccc2N)cc1` (centres unmarked) [Compound 128, N-[2-amino-5-(2-thienyl)phenyl]-4-[(methylsulfonimidoyl)methyl]benzamide], the negative-log IC50 (pIC50) at HDAC3/NCor2 is 5.70 to 6.30; at Recombinant HDAC1, over 7.00.
The corresponding values for `CCN=S(C)(=O)c1ccc2oc(C(=O)Nc3cc(-c4ccc(F)cc4)ccc3N)cc2c1` (centres unmarked) [Compound 237, N-[2-amino-5-(4-fluorophenyl)phenyl]-5-(N-ethyl-S-methyl-sulfonimidoyl)benzofuran-2-carboxamide] are 5.70 to 6.30 and over 7.00.
The corresponding values for `CS(=N)(=O)c1ccc(C(=O)Nc2cc(-c3ccc(F)cc3)ccc2O)cc1` (centres unmarked) [Compound 130, N-[5-(4-fluorophenyl)-2-hydroxy-phenyl]-4-(methylsulfonimidoyl)benzamide] are 5.70 to 6.30 and over 7.00.
The corresponding values for `C[S@@](=N)(=O)c1ccc(C(=O)Nc2cc(-c3ccc(F)s3)ccc2N)cc1` [Compound 144, (R)—N-[2-amino-5-(5-fluoro-2-thienyl)phenyl]-4-(methylsulfonimidoyl)benzamide] are 5.70 to 6.30 and over 7.00.
With `CCN=S(C)(=O)c1ccc(C(=O)Nc2cc(-c3ccc(F)cc3)ccc2N)cc1` (centres unmarked) [Compound 165, N-[2-amino-5-(4-fluorophenyl)phenyl]-4-(N-ethyl-S-methyl-sulfonimidoyl)benzamide], the negative-log IC50 (pIC50) on HDAC3/NCor2 was 5.70 to 6.30; on Recombinant HDAC1, over 7.00.
Turning to `Nc1ccc(-c2ccc(F)cc2)cc1NC(=O)c1cc2cc(S3(=O)=NCCC3)ccc2o1` (centres unmarked) [Compound 210], the pIC50 at HDAC3/NCor2 is 5.70 to 6.30; at Recombinant HDAC1, over 7.00.
The like results for `COc1ncc(S(=N)(=O)c2ccc(C(=O)Nc3cc(-c4ccc(F)cc4)ccc3N)cc2)cn1` (centres unmarked) [Compound 218, N-[2-amino-5-(4-fluorophenyl)phenyl]-4-[(2-methoxypyrimidin-5-yl)sulfonimidoyl]benzamide] were, in that order, 5.70 to 6.30 and over 7.00.
The corresponding values for `CS(=N)(=O)c1ccc(C(=O)Nc2cc(-c3ccc(Cl)s3)ccc2N)cc1` (centres unmarked) [Compound 137, N-[2-amino-5-(5-chloro-2-thienyl)phenyl]-4-(methylsulfonimidoyl)benzamide] are 5.70 to 6.30 and over 7.00.
The corresponding values for `CS(=N)(=O)c1ccc(C(=O)Nc2cc(-c3ccc(C(F)(F)F)cc3)ccc2N)cc1` (centres unmarked) [Compound 142, N-[2-amino-5-[4-(trifluoromethyl)phenyl]phenyl]-4-(methylsulfonimidoyl)benzamide] are under 5.70 and 5.70 to 6.30.
Regarding `N=S(=O)(c1ccc(C(=O)Nc2cc(-c3ccc(F)cc3)ccc2N)cc1)c1ccccc1F` (centres unmarked) [Compound 197, N-[2-amino-5-(4-fluorophenyl)phenyl]-4-[(2-fluorophenyl)sulfonimidoyl]benzamide], the values for the pIC50 against HDAC3/NCor2 and on Recombinant HDAC1 were 6.30 to 7.00 and over 7.00, respectively.
